Test [1] relates to MOLT-4. The experiment in a line: Cytotoxicity against human MOLT4 cells assessed as decrease in cell viability by MTT assay. The format is functional, cell-based.
In test [2] the test system is A549. Nature of the test: Induction of apoptosis in human A549 cells assessed as necrotic cells at IC50 after 24 hrs by annexin V-FITC/propidium iodide staining-based flow cytometric method relative to control. The test is classed as functional. A general note: In flow cytometry, cells or beads pass a laser one at a time.
The subject of test [3] is A549. The experiment in a line: Induction of apoptosis in human A549 cells assessed as change in cell morphology at IC50 after 24 hrs by acridine orange/ethidium bromide staining-based fluorescence microscopic method. The format is functional.
For test [4], the system named is A549. Nature of the test: Induction of apoptosis in human A549 cells assessed as early apoptotic cells at IC50 after 24 hrs by annexin V-FITC/propidium iodide staining-based flow cytometric method (reference value: 0.93%). The format is functional.
Test [5] relates to A549. Nature of the test: Cytotoxicity against human A549 cells assessed as decrease in cell viability by MTT assay. The format is functional, cell-based.
For test [6], the system named is HeLa. The experiment in a line: Cytotoxicity against human HeLa cells assessed as decrease in cell viability by MTT assay. The test is classed as functional, cell-based.
In test [7] the test system is A549. Nature of the test: Induction of apoptosis in human A549 cells assessed as viable cells at IC50 after 24 hrs by annexin V-FITC/propidium iodide staining-based flow cytometric method (reference value: 99.01%). The test is classed as functional.
The subject of test [8] is A549. The experiment in a line: Induction of apoptosis in human A549 cells assessed as late apoptotic cells at IC50 after 24 hrs by annexin V-FITC/propidium iodide staining-based flow cytometric method (reference value: 0.06%). The test is classed as functional.
In test [9] the test system is MOLT-4. Nature of the test: Induction of apoptosis in human MOLT4 cells assessed as change in cell morphology at IC50 after 24 hrs by acridine orange/ethidium bromide staining-based fluorescence microscopic method. The format is functional.
The subject of test [10] is MOLT-4. The experiment in a line: Induction of apoptosis in human MOLT4 cells assessed as viable cells at IC50 after 24 hrs by annexin V-FITC/propidium iodide staining-based flow cytometric method (reference value: 97.78%). The format is functional.
Test [11] relates to MOLT-4. Nature of the test: Induction of apoptosis in human MOLT4 cells assessed as early apoptotic cells at IC50 after 24 hrs by annexin V-FITC/propidium iodide staining-based flow cytometric method (reference value: 2.18%). The format is functional.
In test [12] the test system is MOLT-4. Nature of the test: Induction of apoptosis in human MOLT4 cells assessed as late apoptotic cells at IC50 after 24 hrs by annexin V-FITC/propidium iodide staining-based flow cytometric method (reference value: 0.02%). The test is classed as functional.
Test [13] has as its system MOLT-4. The experiment in a line: Induction of apoptosis in human MOLT4 cells assessed as necrotic cells at IC50 after 24 hrs by annexin V-FITC/propidium iodide staining-based flow cytometric method (reference value: 0.03%). The test is classed as functional.

This passage reports IC50 and Activity results from ChEMBL document CHEMBL3997780, “Facile synthesis and antiproliferative activity of 7H-benzo[7,8]chromeno[2,3-d]pyrimidin-8-amines” (Eur J Med Chem, 2017).

SMILES strings stand for the structures. Active and inactive are the calls of the source. No cut-off for these calls is given here. Some results are limits rather than exact numbers.

The IC50 is the midpoint of a concentration-inhibition curve. Consider `Fc1ccccc1Nc1ncnc2c1C(c1ccccc1)c1ccc3ccccc3c1O2` (configuration not stated), for which the values for the IC50 in test [1], in [5] and in [6] were 12.8 µM, 5.4 µM and 10.3 µM, respectively. The Activity in [2] was found to be 0.29%; in [4], 34.92%; in test [7], 62.07%; in test [8], 2.72%. Moreover, the result in test [3] and in [9] was Active.
With `COc1ccc(OC)c(C2c3ccc4ccccc4c3Oc3ncnc(Nc4ccc(Br)cc4)c32)c1` (configuration not stated), the IC50 is 20.4 µM in test [1], 26.8 µM in [5] and 16.7 µM in test [6].
Regarding `CCc1ccc(Nc2ncnc3c2C(c2ccccc2)c2ccc4ccccc4c2O3)cc1` (configuration not stated), the IC50 in [1] worked out at 17.6 µM; in [5], 17.4 µM; in test [6] it was 14.5 µM.
Take `COc1ccc(OC)c(C2c3ccc4ccccc4c3Oc3ncnc(Nc4ccc(Cl)cc4)c32)c1` (configuration not stated): the IC50 was determined as 7.4 µM in test [1], 14.8 µM in test [5] and 15.9 µM in test [6].
In the same order, the values of `COc1cc(C2c3ccc4ccccc4c3Oc3ncnc(NCc4ccccc4Cl)c32)cc(OC)c1OC` (configuration not stated) are 14.5 µM, 22.2 µM and 33.2 µM.
For `COc1ccc(CCNc2ncnc3c2C(c2ccccc2)c2ccc4ccccc4c2O3)c(OC)c1` (configuration not stated) the same measures were 14.5 µM, 18.9 µM and 43.5 µM.
For `COc1cc(C2c3ccc4ccccc4c3Oc3ncnc(Nc4ccccc4)c32)cc(OC)c1OC` (configuration not stated) the same measures were 9.8 µM, 18.6 µM and 20.7 µM.
With `COc1ccc(Nc2ncnc3c2C(c2cc(OC)c(OC)c(OC)c2)c2ccc4ccccc4c2O3)cc1` (configuration not stated), the IC50 in test [1] was 33.5 µM; in test [5], 46.5 µM; in test [6], more than 100 µM.
`Brc1ccc(Nc2ncnc3c2C(c2ccccc2)c2ccc4ccccc4c2O3)cc1` (configuration not stated): the IC50 was 29.4 µM in test [1], more than 100 µM in test [5] and 31.6 µM in test [6].
On to `Cc1ccc(Nc2ncnc3c2C(c2ccccc2)c2ccc4ccccc4c2O3)c(C)c1` (configuration not stated), for which the IC50 amounted to 8.9 µM in test [1], 11.2 µM in test [5] and 14.6 µM in [6].
Take `c1ccc(Nc2ncnc3c2C(c2ccccc2)c2ccc4ccccc4c2O3)cc1` (configuration not stated): the values for the IC50 in [1], in test [5] and in [6] were 6.6 µM, 12.5 µM and 6.4 µM, respectively.
In the same order, the values of `COc1ccc(OC)c(C2c3ccc4ccccc4c3Oc3ncnc(Nc4ccc(F)cc4)c32)c1` (configuration not stated) are 6.8 µM, 8.4 µM and 10.5 µM.
For `COc1cc(C2c3ccc4ccccc4c3Oc3ncnc(NCc4ccccc4)c32)cc(OC)c1OC` (configuration not stated) the same measures were 10.4 µM, 26.5 µM and 44.6 µM.
For `c1ccc(CNc2ncnc3c2C(c2ccccc2)c2ccc4ccccc4c2O3)cc1` (configuration not stated) the same measures were 12.7 µM, 10.9 µM and 5.9 µM.
In the case of `Clc1ccccc1CNc1ncnc2c1C(c1ccccc1)c1ccc3ccccc3c1O2` (configuration not stated), the IC50 is 11.7 µM in test [1], 9.6 µM in test [5] and 15.4 µM in test [6].
Regarding `COc1ccc(Nc2ncnc3c2C(c2ccccc2)c2ccc4ccccc4c2O3)c(OC)c1` (configuration not stated), the IC50 in test [1] came out at 6.5 µM; in [5] it was 10.9 µM; in test [6], 15.9 µM.
With `Clc1ccc(Nc2ncnc3c2C(c2ccccc2)c2ccc4ccccc4c2O3)cc1` (configuration not stated), the IC50 was found to be 16.4 µM in test [1], 13.7 µM in [5] and 19.9 µM in test [6].
Turning to `COc1ccc(Nc2ncnc3c2C(c2cc(OC)ccc2OC)c2ccc4ccccc4c2O3)cc1` (configuration not stated), the IC50 in test [1] turned out to be 6.9 µM; in [5], 7.2 µM; in test [6] it was 10.6 µM.
For `c1ccc(CCNc2ncnc3c2C(c2ccccc2)c2ccc4ccccc4c2O3)cc1` (configuration not stated) the same measures were 16.9 µM, 68.5 µM and 50.2 µM.
As to `COc1ccc(OC)c(C2c3ccc4ccccc4c3Oc3ncnc(Nc4ccccc4F)c32)c1` (configuration not stated), the results for the IC50 in test [1], in [5] and in [6] were 5.2 µM, 6.3 µM and 6.9 µM, respectively. In addition, the Activity in test [10] was 8.18%; in test [11] it was 47.03%; in [12], 43.61%; in test [13], 1.18%. The outcome in test [3] and in [9] was Active.
